Active and inactive are the calls of the source. The rule behind the calls is not given here.
Experiments:
[1] = system: NCI-H522; assay: Cytotoxicity against human NCI-H522 cells at 10 uM after 48 hrs by SRB assay; format: functional
[2] = Cytotoxicity against human HOP92 cells at 10 uM after 48 hrs by SRB assay; format: functional; details: HOP-92, 48 h, read-out: GI
[3] = system: MCF7; assay: Cytotoxicity against human MCF7 cells at 10 uM after 48 hrs by SRB assay; format: functional; details: MCF7, 48 h, read-out: GI
[4] = Cytotoxicity against human SF268 cells at 10 uM after 48 hrs by SRB assay; format: functional; details: SF-268, 48 h, read-out: GI
[5] = Cytotoxicity against human DU145 cells at 10 uM after 48 hrs by SRB assay; format: functional; details: DU-145, 48 h, read-out: GI
[6] = system: MCF7; assay: Cytotoxicity against human MCF7 cells after 48 hrs by SRB assay; format: functional; details: MCF7, 48 h, pooled result: one value given for 6 cell lines, strains, targets or settings
[7] = system: Calf thymus DNA; assay: Binding affinity to calf thymus DNA by fluorescence spectrophotometric analysis; format: nucleic-acid assay; details: Bos taurus
[8] = system: SN12C; assay: Cytotoxicity against human SN12C cells at 10 uM after 48 hrs by SRB assay; format: functional; details: read-out: GI
[9] = system: ACHN; assay: Cytotoxicity against human ACHN cells at 10 uM after 48 hrs by SRB assay; format: functional; details: read-out: GI
[10] = Cytotoxicity against human HOP62 cells at 10 uM after 48 hrs by SRB assay; format: functional; details: HOP-62, 48 h, read-out: GI
[11] = system: SK-MEL-5; assay: Cytotoxicity against human SK-MEL-5 cells at 10 uM after 48 hrs by SRB assay; format: functional; details: SK-MEL-5, 48 h, read-out: GI
[12] = system: Malme-3M; assay: Cytotoxicity against human MALME-3M cells at 10 uM after 48 hrs by SRB assay; format: functional
[13] = Cytotoxicity against human HL-60(TB) cells after 48 hrs by SRB assay; format: functional; details: HL-60, 48 h, read-out: LC50 (the source's name)
[14] = system: KM12; assay: Cytotoxicity against human KM12 cells at 10 uM after 48 hrs by SRB assay; format: functional; details: KM12, 48 h, read-out: GI
[15] = Cytotoxicity against human SF268 cells after 48 hrs by SRB assay; format: functional; details: SF-268, 48 h, pooled result: one value given for 6 cell lines, strains, targets or settings
[16] = Cytotoxicity against human DU145 cells after 48 hrs by SRB assay; format: functional; details: DU-145, 48 h, read-out: LC50 (the source's name)
[17] = Cytotoxicity against human MOLT4 cells at 10 uM after 48 hrs by SRB assay; format: functional; details: MOLT-4, 48 h, read-out: GI
[18] = system: T47D; assay: Cytotoxicity against human T47D cells at 10 uM after 48 hrs by SRB assay; format: functional
[19] = system: A549; assay: Cytotoxicity against human A549 cells after 48 hrs by SRB assay; format: functional; details: A549, 48 h, pooled result: one value given for 8 cell lines, strains, targets or settings
[20] = Cytotoxicity against human RPMI8226 cells after 48 hrs by SRB assay; format: functional; details: RPMI-8226, 48 h, read-out: LC50 (the source's name)
[21] = system: K562; assay: Cytotoxicity against human K562 cells after 48 hrs by SRB assay; format: functional; details: K562, 48 h
[22] = molecular target: T1, Dihydrofolate reductase (Homo sapiens, UniProt P00374); assay: Inhibition of human recombinant DHFR expressed in Escherichia coli by spectrophotometric analysis
T1 sequence (P00374 whole entry): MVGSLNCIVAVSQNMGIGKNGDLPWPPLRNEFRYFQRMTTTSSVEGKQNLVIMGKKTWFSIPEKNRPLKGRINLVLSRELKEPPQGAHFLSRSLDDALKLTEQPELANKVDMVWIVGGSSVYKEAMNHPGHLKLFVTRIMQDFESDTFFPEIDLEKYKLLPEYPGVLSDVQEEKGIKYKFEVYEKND

[23] = Cytotoxicity against human SNB19 cells at 10 uM after 48 hrs by SRB assay; format: functional; details: SNB-19, 48 h, read-out: GI
[24] = Cytotoxicity against human OVCAR5 cells at 10 uM after 48 hrs by SRB assay; format: functional; details: OVCAR-5, 48 h, read-out: GI
[25] = system: CCRF-CEM; assay: Cytotoxicity against human CCRF-CEM cells at 10 uM after 48 hrs by SRB assay; format: functional
[26] = Cytotoxicity against human SKOV3 cells at 10 uM after 48 hrs by SRB assay; format: functional; details: SK-OV-3, 48 h, read-out: GI
[27] = system: SR; assay: Cytotoxicity against human SR cells at 10 uM after 48 hrs by SRB assay; format: functional
[28] = system: SK-MEL-2; assay: Cytotoxicity against human SK-MEL-2 cells at 10 uM after 48 hrs by SRB assay; format: functional
[29] = system: SR; assay: Cytotoxicity against human SR cells after 48 hrs by SRB assay; format: functional
[30] = system: A498; assay: Cytotoxicity against human A498 cells at 10 uM after 48 hrs by SRB assay; format: functional; details: A498, 48 h, read-out: GI
[31] = system: Calf thymus DNA; assay: Binding affinity to calf thymus DNA assessed as melting temperature by spectrophotometric analysis (reference value: 60 degC); format: nucleic-acid assay; details: Bos taurus
[32] = system: M14; assay: Cytotoxicity against human M14 cells at 10 uM after 48 hrs by SRB assay; format: functional
[33] = Cytotoxicity against human MOLT4 cells after 48 hrs by SRB assay; format: functional; details: MOLT-4, 48 h, read-out: LC50 (the source's name)
[34] = system: 786-0; assay: Cytotoxicity against human 786-0 cells at 10 uM after 48 hrs by SRB assay; format: functional
[35] = system: Calf thymus DNA; assay: Binding affinity to calf thymus DNA by UV-vis spectrometric analysis; format: nucleic-acid assay; details: Bos taurus
[36] = system: 786-0; assay: Cytotoxicity against human 786-0 cells after 48 hrs by SRB assay; format: functional; details: 786-0, 48 h, pooled result: one value given for 8 cell lines, strains, targets or settings
[37] = system: A549; assay: Cytotoxicity against human A549 cells at 10 uM after 48 hrs by SRB assay; format: functional; details: A549, 48 h, read-out: GI
[38] = Cytotoxicity against human SF539 cells at 10 uM after 48 hrs by SRB assay; format: functional; details: SF-539, 48 h, read-out: GI
[39] = Cytotoxicity against human HCT116 cells at 10 uM after 48 hrs by SRB assay; format: functional; details: HCT-116, 48 h, read-out: GI
[40] = Cytotoxicity against human Hs 578T cells at 10 uM after 48 hrs by SRB assay; format: functional; details: read-out: GI
[41] = system: U-251; assay: Cytotoxicity against human U251 cells at 10 uM after 48 hrs by SRB assay; format: functional; details: U-251, 48 h, read-out: GI
[42] = Cytotoxicity against human UO31 cells at 10 uM after 48 hrs by SRB assay; format: functional; details: UO-31, 48 h, read-out: GI
[43] = system: NCI-H322M; assay: Cytotoxicity against human NCI-H322M cells at 10 uM after 48 hrs by SRB assay; format: functional; details: read-out: GI

Cc1nc2cc(Nc3nc(Nc4ccc(F)cc4)nc(N4CCN(C)CC4)n3)ccc2n1Cc1ccccc1
growth inhibition (GI) [1]: Active | inhibition of growth at 10 µM [2]: 97.5% | inhibition of growth at 10 µM [3]: 82.1% | inhibition of growth at 10 µM [4]: 85.4% | inhibition of growth at 10 µM [5]: 83.3% | GI50 [6]: 1.61 µM | LC50 (concentration killing 50% of cells) [6]: 7.54 µM | TGI [6]: 3.6 µM | Ka [7]: 3.36 ×10⁴ /M | inhibition of growth at 10 µM [8]: 65.1% | inhibition of growth at 10 µM [9]: 90.3% | inhibition of growth at 10 µM [10]: 41.8% | inhibition of growth at 10 µM [11]: 29.1% | growth inhibition (GI) [12]: Active | CC50 [13]: 8.47 µM | inhibition of growth at 10 µM [14]: 83% | GI50 [15]: 1.77 µM | LC50 (concentration killing 50% of cells) [15]: 10.8 µM | TGI [15]: 3.94 µM | CC50 [16]: 20.5 µM | inhibition of growth at 10 µM [17]: 98.9% | growth inhibition (GI) [18]: Active | GI50 [19]: 1.84 µM | LC50 [19]: 7.52 µM | TGI [19]: 3.86 µM | CC50 [20]: 8.47 µM | LC50 [21]: 8.47 µM | IC50 [22]: 0.31 µM | inhibition of growth at 10 µM [23]: 55.8% | inhibition of growth at 10 µM [24]: 57.1% | growth inhibition (GI) [25]: Active | inhibition of growth at 10 µM [26]: 31.3% | growth inhibition (GI) [27]: Active | growth inhibition (GI) [28]: Active | LC50 (concentration killing 50% of cells) [29]: 8.47 µM | inhibition of growth at 10 µM [30]: 70.8% | Tm [31]: 65.6 °C | growth inhibition (GI) [32]: Active | CC50 [33]: 8.47 µM | growth inhibition (GI) [34]: Active | Ka [35]: 2.92 ×10⁴ /M | GI50 [36]: 1.77 µM | LC50 (concentration killing 50% of cells) [36]: 9.66 µM | TGI [36]: 3.81 µM | inhibition of growth at 10 µM [37]: 92.8%

Cc1nc2ccc(Nc3nc(Cl)nc(Nc4ccc(F)cc4)n3)cc2n1Cc1ccccc1
inhibition of growth at 10 µM ([1]; NCI-H522, 48 h, read-out: GI): 77.5% | inhibition of growth at 10 µM [2]: 21.2% | inhibition of growth at 10 µM [3]: 37.4% | inhibition of growth at 10 µM [4]: 24.6% | inhibition of growth at 10 µM [5]: 5.78% | GI50 [6]: 4.21 µM | LC50 (concentration killing 50% of cells) [6]: 75.8 µM | TGI [6]: 11.9 µM | Ka [7]: 2.97 ×10⁴ /M | inhibition of growth at 10 µM [8]: 53.3% | inhibition of growth at 10 µM [9]: 28.4% | inhibition of growth at 10 µM [10]: 56.1% | inhibition of growth at 10 µM [38]: 1.83% | inhibition of growth at 10 µM [11]: 30.8% | inhibition of growth at 10 µM ([12]; read-out: GI): 11.5% | CC50 [13]: > 100 µM | inhibition of growth at 10 µM [14]: 27.2% | GI50 [15]: 6.39 µM | LC50 (concentration killing 50% of cells) [15]: 43.5 µM | TGI [15]: 24.3 µM | CC50 [16]: 52.5 µM | inhibition of growth at 10 µM [17]: 41.1% | inhibition of growth at 10 µM ([18]; read-out: GI): 63.2% | GI50 [19]: 6.23 µM | LC50 [19]: 69.6 µM | TGI [19]: 20.3 µM | CC50 [20]: > 100 µM | LC50 [21]: > 100 µM | inhibition of growth at 10 µM [39]: 55.8% | IC50 [22]: 0.31 µM | inhibition of growth at 10 µM [23]: 12% | inhibition of growth at 10 µM [40]: 11.1% | inhibition of growth at 10 µM [41]: 30.9% | inhibition of growth at 10 µM ([25]; read-out: GI): 77.1% | inhibition of growth at 10 µM [26]: 2.61% | inhibition of growth at 10 µM [42]: 62.9% | inhibition of growth at 10 µM ([27]; read-out: GI): 63.9% | LC50 (concentration killing 50% of cells) [29]: > 100 µM | inhibition of growth at 10 µM [43]: 11.9% | inhibition of growth at 10 µM [30]: 22.2% | Tm [31]: 57 °C | inhibition of growth at 10 µM ([32]; M14, 48 h, read-out: GI): 17.7% | CC50 [33]: > 100 µM | inhibition of growth at 10 µM ([34]; 786-0, 48 h, read-out: GI): 20.4% | Ka [35]: 6.03 ×10⁴ /M | GI50 [36]: 7.49 µM | LC50 (concentration killing 50% of cells) [36]: 55.5 µM | TGI [36]: 30 µM | inhibition of growth at 10 µM [37]: 23.8%
